Measured values published in ChEMBL document CHEMBL4673323, “Novel molecular hybrids of indoline spiropyrans and α-lipoic acid as potential photopharmacological agents: Synthesis, structure, photochromic and biological properties” (Bioorg Med Chem Lett, 2021).
Calls of active or inactive are those of the source. No cut-off for these calls is given here.

Legend:
HeLa [1] = assay: Cytotoxicity against human HeLa cells assessed as decrease in cell viability measured after 24 hrs; format: cell-based
[2] = Cytotoxicity against human HeLa cells assessed as decrease in cell viability at 500 uM measured after 24 hrs relative to 2% DMSO control; format: cell-based; settings: read-out: INH
[3] = Cytotoxicity against human HeLa cells assessed as effect on cell viability at 2 mM measured after 24 hrs (Rvb (8% DMSO) = 79.08 +/- 10.78 %); format: cell-based; settings: read-out: Activity
[4] = Cytotoxicity against human HeLa cells assessed as effect on cell viability at 500 uM measured after 24 hrs (Rvb (2% DMSO) = 93.5 +/- 3.19 %); format: cell-based; settings: read-out: Activity
[5] = Cytotoxicity against human HeLa cells assessed as decrease in cell viability at 2 mM measured after 24 hrs relative to 8% DMSO control; format: cell-based; settings: read-out: INH
[6] = Photochromic activity assessed as photoinduced isomerization by measuring increase in intensity of the absorption at 568 to 574 nm by UV spectra
HeLa [7] = assay: Antioxidant activity in human HeLa cells assessed as increase in cellular thiol level at 500 uM measured after 24 hrs by Thiol-tracker violet molecular probe based assay relative to control; format: functional
HeLa [8] = assay: Antioxidant activity in human HeLa cells assessed as decrease in cytosolic ROS at 500 uM measured after 24 hrs by CellROX orange reagent based flow cytometry relative to control; format: functional
HeLa [9] = assay: Antioxidant activity in human HeLa cells assessed as decrease in nuclear ROS at 500 uM measured after 24 hrs by CellROX reagent based flow cytometry; format: functional, cell-based
HeLa [10] = assay: Antioxidant activity in human HeLa cells assessed as increase in cellular thiol level at 500 uM measured after 24 hrs by Thiol-tracker violet molecular probe based assay; format: functional, cell-based
HeLa [11] = assay: Antioxidant activity in human HeLa cells assessed as decrease in mitochondrial ROS at 500 uM measured after 24 hrs by CellROX reagent based flow cytometry; format: functional, cell-based
[12] = Effect on biochemical parameters of gross oxidative status in human HeLa cells at 500 uM measured after 24 hrs relative to control; format: ADME, cell-based
HeLa [13] = assay: Antioxidant activity in human HeLa cells assessed as decrease in cytosolic ROS at 500 uM measured after 24 hrs by CellROX orange reagent based flow cytometry; format: functional, cell-based
HeLa [14] = assay: Antioxidant activity in human HeLa cells assessed as decrease in nuclear ROS at 500 uM measured after 24 hrs by CellROX reagent based flow cytometry relative to control; format: functional
HeLa [15] = assay: Antioxidant activity in human HeLa cells assessed as increase in cellular thiol level at 2 mM measured after 24 hrs by Thiol-tracker violet molecular probe based assay relative to control; format: functional
HeLa [16] = assay: Antioxidant activity in human HeLa cells assessed as decrease in mitochondrial ROS at 500 uM measured after 24 hrs by CellROX reagent based flow cytometry relative to control; format: functional

SMILES	IC50 (HeLa [1]) [µM]	cytotoxicity at 24 h, 500 µM [2] [%]	viability at 24 h, 2000 µM [3] [%]	viability at 24 h, 500 µM [4] [%]	cytotoxicity at 24 h, 2000 µM [5] [%]	Activity [6]	Activity (HeLa [7]) [%]	inhibition at 500 µM (HeLa [8]) [%]	inhibition (HeLa [9])	Activity (HeLa [10])	inhibition (HeLa [11])	Activity [12]	inhibition (HeLa [13])	inhibition at 500 µM (HeLa [14]) [%]	Activity (HeLa [15]) [%]	inhibition at 500 µM (HeLa [16]) [%]
COc1ccc2c(c1)C(C)(C)C1(C=Cc3c(ccc4ccc(O)cc34)O1)N2C (stereo unspecified)	46.2	98.4	5	4.19	93.7	–	–	–	–	–	–	–	–	–	–	–
CN1c2ccccc2C(C)(C)C12C=Cc1c(ccc3ccc(O)cc13)O2 (stereo unspecified)	–	11.9	66.5	84.5	–	inactive	–	–	–	–	–	–	–	–	–	–
COc1ccc2c(c1)C(C)(C)C1(C=Cc3c(ccc4ccc(OC(=O)CCCCC5CCSS5)cc34)O1)N2C (stereo unspecified)	–	8.3	77.9	89.3	–	Active	30	78	inactive	Active	inactive	–	–	–	–	–
CN1c2ccccc2C(C)(C)C12C=Cc1c(ccc3ccc(OC(=O)CCCCC4CCSS4)cc13)O2 (stereo unspecified)	–	–	73.4	95	–	inactive	35	–	–	Active	–	Non-Toxic	inactive	–	–	–
O=C(O)CCCCC1CCSS1 (stereo not drawn) [LIPOIC ACID, ALPHA]	–	–	51.8	94.7	32.7	–	–	–	–	–	–	–	–	31	90	31
